In ChEMBL document CHEMBL1795249, “Triazole-linked reduced amide isosteres: an approach for the fragment-based drug discovery of anti-Alzheimer's BACE1 inhibitors” (Bioorg Med Chem Lett, 2011):
pIC50: −log10 of the molar value.

Molecular target: Beta-secretase 1 (Homo sapiens, UniProt P56817)
Assay: Inhibition of BACE1 by cell-free FRET assay

Sequence of Beta-secretase 1 (P56817 whole entry): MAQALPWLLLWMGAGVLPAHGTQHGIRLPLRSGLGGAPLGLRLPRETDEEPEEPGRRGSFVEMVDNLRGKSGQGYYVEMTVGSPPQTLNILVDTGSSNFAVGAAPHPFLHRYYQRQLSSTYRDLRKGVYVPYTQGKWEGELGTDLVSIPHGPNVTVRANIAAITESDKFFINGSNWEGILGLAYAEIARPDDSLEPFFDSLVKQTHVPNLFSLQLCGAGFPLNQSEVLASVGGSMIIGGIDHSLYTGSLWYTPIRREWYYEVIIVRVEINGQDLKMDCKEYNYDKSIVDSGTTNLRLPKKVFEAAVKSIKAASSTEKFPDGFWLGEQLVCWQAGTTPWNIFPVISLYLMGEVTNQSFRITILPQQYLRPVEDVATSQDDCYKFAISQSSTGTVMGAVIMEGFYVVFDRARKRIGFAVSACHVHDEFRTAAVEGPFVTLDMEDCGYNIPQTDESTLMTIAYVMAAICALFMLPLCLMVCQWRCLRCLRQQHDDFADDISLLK

Structure (SMILES) | pIC50
C#Cc1cccc(NC2CC(O)C(Nc3cccc(-c4cn([C@H](CNCc5cccc(Br)c5)Cc5ccccc5)nn4)c3)CC2O)c1 (mixture of isomers) | 5.47
C[C@@H](NC(=O)c1cc(-c2cn([C@H](CNCc3cccc(Br)c3)Cc3ccccc3)nn2)cc(N(C)S(C)(=O)=O)c1)c1ccccc1 | 5.70
C#Cc1cccc(NC2CC(Nc3cccc(-c4cn([C@H](CNCc5cccc(Br)c5)Cc5ccccc5)nn4)c3)C(O)CC2O)c1 (mixture of isomers) | 5.62
COc1cccc(CNC[C@H](Cc2ccccc2)n2cc(-c3cc(C(=O)N[C@H](C)c4ccccc4)cc(N(C)S(C)(=O)=O)c3)nn2)c1 | 5.15
